For this data set, the system named is Zein protein. Kind of data set: Zein solubilization test (mildness). Here is the method: • 1. Prepare a 5 wt. % aqueous solution of the surfactant. If the natural pH of the system differs from that desired, adjust by incremental addition of acid or base. • 2. Mix 4 grams of Zein protein in 40 grams of the surfactant solution. Allow the mixture to stand at room temperature for 24 hours with frequent vigorous shaking. • 3. Filter the supernatant of the Zein/surfactant mixture using a syringe filter with a 0.45 micron Nylon membrane. Dilute the filtered solution 100-fold with 2% SDS solution (i.e., 0.1 gram filtered solution diluted in 10 grams of 2% SDS solution). As a reference, also prepare a diluted surfactant solution by mixing 0.1 grams of 5 wt. % surfactant solution with 10 grams of 2% SDS solution. • 4. The Zein concentration is determined using a UV/VIS spectrophotometer operated in the range 200-350 nm at a scanning rate of 800 nm/min, using a 2% SDS solution as the background. […] The Zein solubility in the 5 wt. % surfactant solution is C, times the dilution factor.
[…] Zein and surfactant were contacted for 24 hours.
Zein tests reported in Table V were all conducted at 45° C. rather than at room temperature.

For the substance Sodium lauryl ether sulfate [SLES], the “Percent Zein Solubilized” value was found to be 4.64% (Table I, pH 6.0, 5% total surfactant solutions, Zein and surfactant contacted 24 hours); 4.11% (Table II, comparators at pH 6.0); 3.52% (Table IV, C12 MAP blended with other carboxylic acids, pH 5.0); 3.52% (Table V, C12 MAP blended with fatty alcohols, pH 5.0, conducted at 45° C.); 3.52% (Table VI, negative controls, strong acid auxiliary agents, pH 5.0); 3.55% (Table VII, C12 MAP acid 60/40 weight ratio with auxiliary, combined 5% in water, amino acid counterion to pH 5, listed as 42). Also, the “Percent Zein Solubilized” value (Table VII, C12 MAP acid 60/40 weight ratio with auxiliary, combined 5% in water, amino acid counterion to pH 5, listed as 46) is listed as 3.42%.
